Source: the NIST ThermoML archive (doi:10.1016/j.fluid.2005.07.017)

Assay: xn = mol fraction of the nth substance listed
Settings: Liquid, Vibrating tube method

c1ccsc1 [thiophene] + O=C=O
Settings	mass density [kg/m3]
322.95 K, 19000 kPa, x2 = 0.199	1032.53
322.96 K, 8142 kPa, x2 = 0.5661	964.89
322.96 K, 9024 kPa, x2 = 0.5661	967.04
322.96 K, 10004 kPa, x2 = 0.5661	969.41
322.96 K, 11043 kPa, x2 = 0.5661	971.85
322.96 K, 12049 kPa, x2 = 0.5661	974.11
322.96 K, 13009 kPa, x2 = 0.5661	976.27
322.96 K, 14014 kPa, x2 = 0.5661	978.41
322.96 K, 15031 kPa, x2 = 0.5661	980.61
322.96 K, 16040 kPa, x2 = 0.5661	982.75
322.96 K, 17014 kPa, x2 = 0.5661	984.76
322.96 K, 18012 kPa, x2 = 0.5661	986.77
322.96 K, 19036 kPa, x2 = 0.5661	988.76
323.01 K, 1047 kPa, x2 = 0	1028.97
323.01 K, 2059 kPa, x2 = 0	1029.98
323.01 K, 3070 kPa, x2 = 0	1031.02
323.01 K, 4047 kPa, x2 = 0	1031.99
323.01 K, 5002 kPa, x2 = 0	1032.9
323.01 K, 6005 kPa, x2 = 0	1033.9
323.01 K, 7068 kPa, x2 = 0	1034.92
323.01 K, 8021 kPa, x2 = 0	1035.81
323.01 K, 9013 kPa, x2 = 0	1036.76
323.01 K, 10005 kPa, x2 = 0	1037.67
323.01 K, 10991 kPa, x2 = 0	1038.62
323.01 K, 12034 kPa, x2 = 0	1039.58
323.01 K, 12977 kPa, x2 = 0	1040.44
323.01 K, 13999 kPa, x2 = 0	1041.38
323.01 K, 14991 kPa, x2 = 0	1042.26
323.01 K, 15995 kPa, x2 = 0	1043.17
323.01 K, 16998 kPa, x2 = 0	1044.03
323.01 K, 17983 kPa, x2 = 0	1044.93
323.01 K, 18951 kPa, x2 = 0	1045.78
323.06 K, 10088 kPa, x2 = 0.9217	726.5
323.06 K, 11019 kPa, x2 = 0.9217	748.28
323.06 K, 12026 kPa, x2 = 0.9217	766.89
323.06 K, 13007 kPa, x2 = 0.9217	781.83
323.06 K, 14004 kPa, x2 = 0.9217	794.96
323.06 K, 15030 kPa, x2 = 0.9217	806.9
323.06 K, 16054 kPa, x2 = 0.9217	817.45
323.06 K, 17033 kPa, x2 = 0.9217	826.57
323.06 K, 18006 kPa, x2 = 0.9217	835.18
323.06 K, 19038 kPa, x2 = 0.9217	843.46
323.06 K, 20051 kPa, x2 = 0.9217	850.95
323.06 K, 21005 kPa, x2 = 0.9217	857.68
323.06 K, 22019 kPa, x2 = 0.9217	864.36
323.06 K, 23033 kPa, x2 = 0.9217	870.67
323.06 K, 24027 kPa, x2 = 0.9217	876.59
323.06 K, 24980 kPa, x2 = 0.9217	882.14
323.08 K, 6997 kPa, x2 = 0.3818	994.07
323.08 K, 8053 kPa, x2 = 0.3818	995.85
323.08 K, 9009 kPa, x2 = 0.3818	997.45
323.08 K, 10081 kPa, x2 = 0.3818	999.25
323.08 K, 11041 kPa, x2 = 0.3818	1000.81
323.08 K, 12024 kPa, x2 = 0.3818	1002.4
323.08 K, 12998 kPa, x2 = 0.3818	1003.93
323.08 K, 14011 kPa, x2 = 0.3818	1005.51
323.08 K, 15018 kPa, x2 = 0.3818	1007.08
323.08 K, 15936 kPa, x2 = 0.3818	1008.44
323.08 K, 17059 kPa, x2 = 0.3818	1010.13
323.08 K, 17995 kPa, x2 = 0.3818	1011.52
323.08 K, 19010 kPa, x2 = 0.3818	1013.01
323.09 K, 8069 kPa, x2 = 0.6996	950.76
323.09 K, 9063 kPa, x2 = 0.6996	953.71
323.09 K, 10074 kPa, x2 = 0.6996	956.72
323.09 K, 11045 kPa, x2 = 0.6996	959.45
323.09 K, 11999 kPa, x2 = 0.6996	962.01
323.09 K, 13038 kPa, x2 = 0.6996	964.85
323.09 K, 14005 kPa, x2 = 0.6996	967.35
323.09 K, 14998 kPa, x2 = 0.6996	969.82
323.09 K, 16004 kPa, x2 = 0.6996	972.38
323.09 K, 17044 kPa, x2 = 0.6996	974.92
323.09 K, 17927 kPa, x2 = 0.6996	976.97
323.15 K, 101 kPa, x2 = 0	1026.98
332.79 K, 7987 kPa, x2 = 0.5661	943.05
332.79 K, 9035 kPa, x2 = 0.5661	945.99
332.79 K, 10035 kPa, x2 = 0.5661	948.77
332.79 K, 11015 kPa, x2 = 0.5661	951.37
332.79 K, 12021 kPa, x2 = 0.5661	953.97
332.79 K, 13022 kPa, x2 = 0.5661	956.49
332.79 K, 14010 kPa, x2 = 0.5661	958.85
332.79 K, 15020 kPa, x2 = 0.5661	961.27
332.79 K, 16037 kPa, x2 = 0.5661	963.66
332.79 K, 17014 kPa, x2 = 0.5661	965.85
332.79 K, 18001 kPa, x2 = 0.5661	968.08
332.79 K, 19018 kPa, x2 = 0.5661	970.3
332.85 K, 1015 kPa, x2 = 0	1016.93
332.85 K, 2035 kPa, x2 = 0	1018
332.85 K, 3004 kPa, x2 = 0	1019.06
332.85 K, 3964 kPa, x2 = 0	1020.05
332.85 K, 4991 kPa, x2 = 0	1021.14
332.85 K, 5081 kPa, x2 = 0.199	1002.75
332.85 K, 6001 kPa, x2 = 0	1022.17
332.85 K, 6051 kPa, x2 = 0.199	1004.04
332.85 K, 7014 kPa, x2 = 0	1023.21
332.85 K, 7075 kPa, x2 = 0.199	1005.38
332.85 K, 7998 kPa, x2 = 0	1024.2
332.85 K, 8033 kPa, x2 = 0.199	1006.63
332.85 K, 9006 kPa, x2 = 0.199	1007.88
332.85 K, 9009 kPa, x2 = 0	1025.23
332.85 K, 9995 kPa, x2 = 0	1026.19
332.85 K, 10006 kPa, x2 = 0.199	1009.13
332.85 K, 10989 kPa, x2 = 0	1027.18
332.85 K, 11013 kPa, x2 = 0.199	1010.42
332.85 K, 12006 kPa, x2 = 0	1028.17
332.85 K, 12053 kPa, x2 = 0.199	1011.71
332.85 K, 13009 kPa, x2 = 0	1029.18
